Like-named read-outs stand apart in the source and are kept apart here.
Experiments:
bacteria = assay: Non-food contact sanitizing test, summary (organism not named); type: cell-based; conditions: Table 13; composition including the named antimicrobial agent
Experimental: The composition produced greater than 3 log10 reduction of bacteria within a 5 minute contact time.
A summary of sanitizing efficacy in a non-food contact sanitizing test is shown below in Table 11 below. All testing was performed in 500 ppm synthetic hard water with a five minute exposure time. Microbiological testing was performed according to known methods, certain of which included EPA efficacy data requirements from DIS/TSS-10.
(§1) A summary of stability and sanitizing efficacy for these compositions including an amine antimicrobial agent is shown below in Table 13. This table also includes, for comparison, results for compositions including other types of antimicrobial agents.

[1] = Physical stability of compositions; type: physicochemical
From the text: as §1

lipase = assay: Enzyme stability testing (Lipolase activity); type: biochemical; conditions: Table 13; composition including the named antimicrobial agent
Experimental: The pH of Formula 3 was lowered to 7. Formulas 4 and 5 maintained enzyme stability at 40 C for at least 30 days. Formula 3 maintained enzyme stability at 40 C for 30 days, but dropped thereafter. Enzyme stability testing was performed according to the manufacturers specifications (e.g., Novozymes LUNA #2000-10340-01 “Manual Procedure for Determination of Lipolase Activity in Enzyme Preparations and Detergents”. )

[2] = Table 13, composition including the named antimicrobial agent

linear alkyloxypropyl amine [PA-19]
Antimicrobial Activity (bacteria): 4 log reduction
Physical Stability [1, 2]: yes
Enzyme Stability (lipase): yes

O=C([O-])CNCO.[Na+] [Integra 44, Hydroxymethylglycinate]
Antimicrobial Activity (bacteria): none
Physical Stability [1, 2]: yes

CCCCCCCCCC[N+](C)(C)CCCCCCCCCC.[Cl-] [Bardac 2250, didecyl dimethyl ammonium chloride]
Antimicrobial Activity (bacteria): 3 log reduction

cocodiaminopropane [Duomeen CD]
Antimicrobial Activity (bacteria): 2.5 log reduction
Physical Stability [1, 2]: yes
Enzyme Stability (lipase): yes

isotridecyloxypropyl-1,3-diaminopropane [DA-17]
Antimicrobial Activity (bacteria): 4 log reduction
Physical Stability [1]: yes
Enzyme Stability (lipase): yes

polyhexymethylene biguanide [Vantocil]
Physical Stability [1, 2]: yes

Dodecyl/tetradecyloxypropyl-1,3-diaminopropane [DA 1618]
Antimicrobial Activity (bacteria): 4.8 log reduction
Physical Stability [1, 2]: yes
Enzyme Stability (lipase): yes

Oc1cccc(O)c1 [Resorcinol, 1,3-benzenediol, reference compound]
Physical Stability [1, 2]: yes

CCCCCCCCCCCCN(CCCN)CCCN [Lonzabac 12.30, bis (3-aminopropyl)dodecylamine]
Antimicrobial Activity (bacteria): 4.5 log reduction
Physical Stability [1, 2]: yes
Enzyme Stability (lipase): yes

Cc1cc(O)cc(C)c1Cl [PCMX, Chloroxylenol, reference compound]
Physical Stability [1, 2]: yes

From patent publication US8211849B2, “Stable antimicrobial compositions including spore, bacteria, fungi and/or enzyme” (priority 2005, dated 2012)
